Measurements published in patent publication US12527804B2, “Microemulsion delivery systems for alcohol-soluble species including DHEA, pregnenolone, and chrysin for reducing menopausal symptoms” (Quicksilver Scientific, Inc., priority 2021, dated 2026).
In brackets after ≈: the same amount, converted by molar mass. Where two headings read alike, the source gives them in different places.

Key:
[1] = test system: peri- and postmenopausal subjects; test: Combination therapy of MOIW microemulsion with progesterone, menopausal symptoms; type: in vivo, human; conditions: most perimenopausal subjects, administered daily in combination with MOIW microemulsion
Method: Dosing for this combination therapy includes use of the present MOIW microemulsion as previously described with the addition of progesterone. For use in the alleviation of menopausal symptoms, from 5 mg to 18 mg of progesterone is preferably administered daily, with 8 mg to 16 mg of progesterone providing a therapeutically effective dose for postmenopausal subjects and with 8 mg to 10 mg of progesterone providing a therapeutically effective dose for perimenopausal subjects. A therapeutically effective dose for most perimenopausal subjects was determined to be approximately 8 mg.
A preferred dosing for this combination therapy includes intra-oral administration of the MOIW microemulsion ante meridiem with topical administration of the thickened MOIW post meridiem. For perimenopausal subjects using intermittent dosing of the MOIW microemulsion, the same intermittent dosing is also preferred for the thickened MOIW microemulsion progesterone topical.

[2] = Solubility of DHEA in ethanol and MCT oil; type: physicochemical
From the text: An alcohol-soluble species is a species that is insoluble in water and has a greater solubility in ethanol than in medium chain triglyceride (MCT) oils. […] Alcohol-soluble species are preferably pharmacologically active, more preferably are a drug or a supplement, and neither include nor are water. Thus, liquids and solids may exist that technically are soluble in alcohol, but because they also are soluble in water or more or equivalently soluble in MCT oils than in ethanol are not “alcohol-soluble species”.
Solubilized means that the alcohol-soluble species to be delivered is in the solution of the droplet. […] Thus, if either average particle diameters greater than 200 nm or precipitated crystals visible to the naked eye form, the alcohol-soluble species is not solubilized in the solution of the droplet. If an alcohol-soluble species is not solubilized in the solution, it is insoluble in the solution. In many respects, solubility may be thought of as a concentration dependent continuum. For example, the following descriptive terms may be used to express solubility of a solute in a solvent (grams solid/mL of solvent) at 25 degrees Celsius: […]

Structure (SMILES): CC(=O)[C@H]1CC[C@H]2[C@@H]3CCC4=CC(=O)CC[C@]4(C)[C@H]3CC[C@]12C [progesterone]
- therapeutically effective dose of progesterone [1]: approximately 8 mg

Structure (SMILES): C[C@]12CC[C@H](O)CC1=CC[C@@H]1[C@@H]2CC[C@]2(C)C(=O)CC[C@@H]12 [DHEA, dehydroepiandrosterone (3-beta-hydroxyandrosteron-5-en-17-one)]
- solubility ([2]; ethanol, organic solvent or mixture, read-out: solubility in ethanol): ~150 mg/mL (≈ 520 mM)
- solubility ([2]; medium chain triglyceride (MCT) oil, oil or lipid, MCT oil, read-out: solubility in MCT oil): ~10 mg/mL (≈ 34.7 mM)
